# In patent US12545748B2, “Water-soluble 1,3-diphenylguanidine (DPG)-based supramolecular inclusion complex and preparation method and use thereof” (YANGZHOU UNIVERSITY, priority 2021, dated 2026):
# Like-named read-outs stand apart in the source and are kept apart here.
# What was measured:
# [1] = Thermogravimetric analysis (thermal stability); assay type: physicochemical
# Method: Taking Examples 2 and 4 as examples, the thermal stability of DPG raw materials, HP-β-CD, β-CDP and their respective inclusion complexes were analyzed by thermogravimetric analysis, and the results were shown in FIG. 4.
# [2] = in water at 25° C.; cited from earlier work
# [3] = Solubilization experiment by ultraviolet-visible spectra (244 nm); conditions: water, thermodynamic from solid
# Source text: Taking Examples 2 and 4 as examples, the solubilization effect was verified by comparing and analyzing absorption peaks of ultraviolet-visible spectra of the DPG raw material, the DPG-β-CDP inclusion complex, and the DPG-HP-β-CD inclusion complex. The results were shown in FIG. 5, β-CDP and HP-β-CD had no ultraviolet absorption peaks.
# [4] = assay type: physicochemical
# Method: 1. Determination of Inclusion Ratio and Inclusion Constant of Inclusion Complex by Ultraviolet-Visible Spectroscopy
# According to a Benesi-Hildebrand method (J. Am. Chem. Soc. 1949, 71, 8, 2703-2707), it was obtained that: at 25° C., the complexation stability constants of HP-β-CD and β-CDP with DPG were 26.87 L/mol and 27.88 L/mol, respectively.
complexation stability constant with DPG [4],Compound,second decomposition (temperature) [1],began to decompose (temperature) ([1]; first decomposition),solubility [2],solubility [3]
,"N=C(Nc1ccccc1)Nc1ccccc1 [DPG, 1,3-diphenylguanidine]",256 °C,166 °C,about 315 mg/L,315 µg/mL
26.87 L/mol,hydroxypropyl-ß-cyclodextrin [HP-β-CD],,,,
27.88 L/mol,β-cyclodextrin polymer [β-CDP],,,,
